Assay: in vitro
Details: human, hela cells, % viability
`O=C(Cn1cc(C(=O)NCc2ccccc2)ccc1=O)NC1(c2ccccc2)CCCC1` [CBK285753] gave a viability at 28.5 h, 10 µM of 95.7%.
`Cc1cccc(-c2ccc(CC3(C(=O)NC(C)C)CCN(C(=O)C4CC4)CC3)cc2)c1` [CBK285757] showed a viability at 28.5 h, 10 µM of 93.3%.
For `Cc1cccc(-c2ccc(CC3(C(=O)NC(C)C)CCN(C(=O)C(C)(C)C)CC3)cc2)c1` [CBK285758], the viability at 28.5 h, 10 µM was 96.2%.
Compound `CNC(=O)C1(Cc2ccc(-c3ccccc3)cc2)CCN(C(=O)CC2CCCCC2)CC1` [CBK285763] has a viability at 28.5 h, 10 µM of 112%.
Work on `CNC(=O)C1(Cc2ccc(-c3ccccc3)cc2)CCN(C(=O)Cc2ccccc2)CC1` [CBK285764] yielded a viability at 28.5 h, 10 µM of 103%.
`CNC(=O)C1(Cc2ccc(-c3ccccc3)cc2)CCN(C(=O)CCc2ccccc2)CC1` [CBK285765] gave a viability at 28.5 h, 10 µM of 91.8%.
For `CNC(=O)C1(Cc2ccc(-c3ccccc3)cc2)CCN(C(=O)COc2ccccc2)CC1` [CBK285766], the viability at 28.5 h, 10 µM was 92.7%.
Work on `CNC(=O)C1(Cc2ccc(-c3ccccc3)cc2)CCN(C(=O)Cc2ccccc2F)CC1` [CBK285768] yielded a viability at 28.5 h, 10 µM of 94.8%.
Work on `COc1cccc(C(=O)N2CCC(Cc3ccc(-c4ccccc4)cc3)(C(N)=O)CC2)c1` [CBK285770] yielded a viability at 28.5 h, 10 µM of 103%.
Compound `NC(=O)C1(Cc2ccc(-c3ccccc3)cc2)CCN(C(=O)Cc2ccccc2)CC1` [CBK285771] has a viability at 28.5 h, 10 µM of 115%.
Compound `Cc1cccc(-c2ccc(CC3(C(N)=O)CCN(C(=O)c4ccccc4)CC3)cc2)c1` [CBK285778] has a viability at 28.5 h, 10 µM of 93.9%.
For `Cc1cccc(-c2ccc(CC3(C(N)=O)CCN(C(=O)Cc4ccccc4)CC3)cc2)c1` [CBK285780], the viability at 28.5 h, 10 µM was 101%.
`NC(=O)C1(Cc2cccc(-c3cccs3)c2)CCN(C(=O)CCc2ccccc2)CC1` [CBK285782] showed a viability at 28.5 h, 10 µM of 91.3%.
`CNC(=O)C1(Cc2ccc(-c3ccccc3)cc2)CCN(C(=O)c2cccc(OC)c2)CC1` [CBK285788] gave a viability at 28.5 h, 10 µM of 105%.
Work on `Nc1ncc(-c2ccc(C(F)(F)F)cc2)c(C2CCCN(C(=O)c3ccccc3)C2)n1` (stereo not shown) [CBK285790] yielded a viability at 28.5 h, 10 µM of 89.2%.
Compound `Nc1ncc(-c2ccc(C(F)(F)F)cc2)c(C2CCCN(C(=O)C3CCCCC3)C2)n1` (stereo not shown) [CBK285791] has a viability at 28.5 h, 10 µM of 98.9%.
`CCNC(=O)C1(Cc2ccc(-c3cccs3)cc2)CCN(C(=O)Cc2ccccc2)CC1` [CBK285795] showed a viability at 28.5 h, 10 µM of 115%.
For `Cc1cccc(CC(=O)N2CCC(Cc3ccc(-c4cccc(C)c4)cc3)(C(N)=O)CC2)c1` [CBK285798], the viability at 28.5 h, 10 µM was 104%.
With `O=C(Cc1c[nH]c2ccccc12)N1CCCC1c1cccc(Cc2ccccc2F)n1` (stereo not shown) [CBK285799] the viability at 28.5 h, 10 µM was 89.7%.
`CCOc1ccc(C2CCCN2S(=O)(=O)c2c[nH]c(=O)[nH]c2=O)cc1` (stereo not shown) [CBK285806] showed a viability at 28.5 h, 10 µM of 92.6%.
For `CCOc1ccccc1-c1ccccc1NC(=O)c1ccc2c(c1)ncn2C1CC1` [CBK285808], the viability at 28.5 h, 10 µM was 84.3%.
With `CCOCc1ccc(C(=O)N2CCNC(=O)C2Cc2ccc(-c3cccs3)cc2)cc1` (stereo not shown) [CBK285811] the viability at 28.5 h, 10 µM was 97.3%.
Work on `CN1CCN(C(=O)c2n[nH]c3c2CCCC3)C(Cc2ccc(-c3cccs3)cc2)C1=O` (stereo not shown) [CBK285812] yielded a viability at 28.5 h, 10 µM of 101%.
Compound `Cc1ccc2[nH]c(Cc3ccc(NC(=O)c4cccc5c(=O)cc(C)[nH]c45)cc3)nc2c1` [CBK285814] has a viability at 28.5 h, 10 µM of 99.5%.
For `Cc1ccc2[nH]c(Cc3ccc(NC(=O)c4cc(=O)n(C)c5ccccc45)cc3)nc2c1` [CBK285815], the viability at 28.5 h, 10 µM was 98.5%.
Work on `Cn1c(=O)c(C(=O)Nc2ccc(OCc3ccccc3F)cc2)nc2ccccc21` [CBK285820] yielded a viability at 28.5 h, 10 µM of 103%.
In the case of `COc1ccc(-c2ccc(OC)cc2C(=O)Nc2ccc3c(c2)OCC(=O)N3)cc1` [CBK285821], the viability at 28.5 h, 10 µM is reported as 101%.
With `Cc1ccc2[nH]c(Cc3ccc(NC(=O)CCC4C(=O)Nc5ccccc54)cc3)nc2c1` (stereo not shown) [CBK285824] the viability at 28.5 h, 10 µM was 91%.
For `Cc1c(C(=O)Nc2cccc(-c3nc4ccccc4s3)c2)sc2nc[nH]c(=O)c12` [CBK285825], the viability at 28.5 h, 10 µM was 80.5%.
With `COc1cccc(C(=O)N2CCN(C)C(=O)C2Cc2ccccc2-c2ccccc2)c1OC` (stereo not shown) [CBK285828] the viability at 28.5 h, 10 µM was 109%.

Same assay, conditions: human, hela cells, % viability, bulk resorufin, single well
With `Cc1cc2cc(NC(=O)CCC3C(=O)NC(=O)NC3=O)cc(Cl)c2o1` [CBK285826] the viability at 28.5 h, 10 µM was 93%.

— PMC12040169 (PLOS Biology, 2025)
